Data reported in PubChem BioAssay (NCI).
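Following 48 hours of exposure in 96-well plates, responses at five concentrations were used to interpolate endpoints linearly. TGI marks complete inhibition of growth.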

The compounds below were run on SK-MEL-2 melanoma (assay: NCI tumour cell line growth inhibition, 48 h).

SMILES	TGI [µM]
O=C(O)CSc1n[nH]c(-c2ccco2)n1	> 100

What follows are compounds tested on SK-MEL-28 melanoma (assay: NCI tumour cell line growth inhibition, 48 h).

SMILES	TGI [µM]
NC1=NCN(C2OC(CO)C(O)C2O)C(=O)N1 (stereo not drawn)	1660
CCCNCCCCC(NC(C)=O)C(=O)NCc1ccccc1 (stereo not drawn)	> 100
CNC(=O)OCc1nc(SC)n(C)c1COC(=O)NC	380
O=C(O)CSc1n[nH]c(-c2ccco2)n1	> 100

These compounds were tested on SK-MEL-5 melanoma (assay: NCI tumour cell line growth inhibition, 48 h).

SMILES	TGI [µM]
NC1=NCN(C2OC(CO)C(O)C2O)C(=O)N1 (stereo not drawn)	335
CCCNCCCCC(NC(C)=O)C(=O)NCc1ccccc1 (stereo not drawn)	> 100
CNC(=O)OCc1nc(SC)n(C)c1COC(=O)NC	327
O=C(O)CSc1n[nH]c(-c2ccco2)n1	> 100

These compounds were tested on SK-OV-3 ovarian (assay: NCI tumour cell line growth inhibition, 48 h).

SMILES	TGI [µM]
NC1=NCN(C2OC(CO)C(O)C2O)C(=O)N1 (stereo not drawn)	943
CCCNCCCCC(NC(C)=O)C(=O)NCc1ccccc1 (stereo not drawn)	> 100
CNC(=O)OCc1nc(SC)n(C)c1COC(=O)NC	525
O=C(O)CSc1n[nH]c(-c2ccco2)n1	> 100

The compounds below were run on SN12C renal (assay: NCI tumour cell line growth inhibition, 48 h).

SMILES	TGI [µM]
NC1=NCN(C2OC(CO)C(O)C2O)C(=O)N1 (stereo not drawn)	1680
CCCNCCCCC(NC(C)=O)C(=O)NCc1ccccc1 (stereo not drawn)	> 100
CNC(=O)OCc1nc(SC)n(C)c1COC(=O)NC	309
O=C(O)CSc1n[nH]c(-c2ccco2)n1	> 100

The compounds below were run on SN12K1 renal (assay: NCI tumour cell line growth inhibition, 48 h).

SMILES	TGI [µM]
NC1=NCN(C2OC(CO)C(O)C2O)C(=O)N1 (stereo not drawn)	619
CNC(=O)OCc1nc(SC)n(C)c1COC(=O)NC	250

The compounds below were run on SNB-19 CNS (assay: NCI tumour cell line growth inhibition, 48 h).

SMILES	TGI [µM]
NC1=NCN(C2OC(CO)C(O)C2O)C(=O)N1 (stereo not drawn)	2220
CCCNCCCCC(NC(C)=O)C(=O)NCc1ccccc1 (stereo not drawn)	> 100
CNC(=O)OCc1nc(SC)n(C)c1COC(=O)NC	743
O=C(O)CSc1n[nH]c(-c2ccco2)n1	> 100

What follows are compounds tested on SNB-75 CNS (assay: NCI tumour cell line growth inhibition, 48 h).

SMILES	TGI [µM]
NC1=NCN(C2OC(CO)C(O)C2O)C(=O)N1 (stereo not drawn)	392
CCCNCCCCC(NC(C)=O)C(=O)NCc1ccccc1 (stereo not drawn)	> 100
CNC(=O)OCc1nc(SC)n(C)c1COC(=O)NC	349
O=C(O)CSc1n[nH]c(-c2ccco2)n1	> 100

The compounds below were run on SNB-78 CNS (assay: NCI tumour cell line growth inhibition, 48 h).

SMILES	TGI [µM]
NC1=NCN(C2OC(CO)C(O)C2O)C(=O)N1 (stereo not drawn)	1780
CCCNCCCCC(NC(C)=O)C(=O)NCc1ccccc1 (stereo not drawn)	> 100
CNC(=O)OCc1nc(SC)n(C)c1COC(=O)NC	359
O=C(O)CSc1n[nH]c(-c2ccco2)n1	> 100

These compounds were tested on SR leukemia (assay: NCI tumour cell line growth inhibition, 48 h).

SMILES	TGI [µM]
NC1=NCN(C2OC(CO)C(O)C2O)C(=O)N1 (stereo not drawn)	278
CNC(=O)OCc1nc(SC)n(C)c1COC(=O)NC	473

What follows are compounds tested on SW-620 colon (assay: NCI tumour cell line growth inhibition, 48 h).

SMILES	TGI [µM]
NC1=NCN(C2OC(CO)C(O)C2O)C(=O)N1 (stereo not drawn)	1340
CCCNCCCCC(NC(C)=O)C(=O)NCc1ccccc1 (stereo not drawn)	> 100
CNC(=O)OCc1nc(SC)n(C)c1COC(=O)NC	685
O=C(O)CSc1n[nH]c(-c2ccco2)n1	> 100

What follows are compounds tested on T-47D breast (assay: NCI tumour cell line growth inhibition, 48 h).

SMILES	TGI [µM]
NC1=NCN(C2OC(CO)C(O)C2O)C(=O)N1 (stereo not drawn)	759
CNC(=O)OCc1nc(SC)n(C)c1COC(=O)NC	554

These compounds were tested on TK-10 renal (assay: NCI tumour cell line growth inhibition, 48 h).

SMILES	TGI [µM]
NC1=NCN(C2OC(CO)C(O)C2O)C(=O)N1 (stereo not drawn)	1730
CCCNCCCCC(NC(C)=O)C(=O)NCc1ccccc1 (stereo not drawn)	> 100
CNC(=O)OCc1nc(SC)n(C)c1COC(=O)NC	702
O=C(O)CSc1n[nH]c(-c2ccco2)n1	> 100

These compounds were tested on U251 CNS (assay: NCI tumour cell line growth inhibition, 48 h).

SMILES	TGI [µM]
NC1=NCN(C2OC(CO)C(O)C2O)C(=O)N1 (stereo not drawn)	2410
CCCNCCCCC(NC(C)=O)C(=O)NCc1ccccc1 (stereo not drawn)	> 100
CNC(=O)OCc1nc(SC)n(C)c1COC(=O)NC	599
O=C(O)CSc1n[nH]c(-c2ccco2)n1	> 100

What follows are compounds tested on UACC-257 melanoma (assay: NCI tumour cell line growth inhibition, 48 h).

SMILES	TGI [µM]
NC1=NCN(C2OC(CO)C(O)C2O)C(=O)N1 (stereo not drawn)	1430
CCCNCCCCC(NC(C)=O)C(=O)NCc1ccccc1 (stereo not drawn)	> 100
CNC(=O)OCc1nc(SC)n(C)c1COC(=O)NC	335
O=C(O)CSc1n[nH]c(-c2ccco2)n1	> 100

The compounds below were run on UACC-62 melanoma (assay: NCI tumour cell line growth inhibition, 48 h).

SMILES	TGI [µM]
NC1=NCN(C2OC(CO)C(O)C2O)C(=O)N1 (stereo not drawn)	241
CCCNCCCCC(NC(C)=O)C(=O)NCc1ccccc1 (stereo not drawn)	> 100
CNC(=O)OCc1nc(SC)n(C)c1COC(=O)NC	103
O=C(O)CSc1n[nH]c(-c2ccco2)n1	> 100

Each compound was assayed on UO-31 renal (assay: NCI tumour cell line growth inhibition, 48 h).

SMILES	TGI [µM]
NC1=NCN(C2OC(CO)C(O)C2O)C(=O)N1 (stereo not drawn)	872
CCCNCCCCC(NC(C)=O)C(=O)NCc1ccccc1 (stereo not drawn)	> 100
CNC(=O)OCc1nc(SC)n(C)c1COC(=O)NC	444
O=C(O)CSc1n[nH]c(-c2ccco2)n1	> 100

What follows are compounds tested on XF 498 CNS (assay: NCI tumour cell line growth inhibition, 48 h).

SMILES	TGI [µM]
NC1=NCN(C2OC(CO)C(O)C2O)C(=O)N1 (stereo not drawn)	197
CCCNCCCCC(NC(C)=O)C(=O)NCc1ccccc1 (stereo not drawn)	> 100
CNC(=O)OCc1nc(SC)n(C)c1COC(=O)NC	446
O=C(O)CSc1n[nH]c(-c2ccco2)n1	> 100
